Measured values published in US5071864A, “Aminoalkyl-substituted 2-aminothiazoles and therapeutic agents containing them” (BASF Aktiengesellschaft, priority 1989, dated 1991).
Structures can show the parent of a compound that is named as a salt.

target: D2 -receptor (Rattus norvegicus, UniProt P61169); experiment: Receptor binding test (3H-ADTN, rat striatal membranes); parameters: species or system rats (Sprague Dawley); conditions: not given
Sequence (P61169 whole entry): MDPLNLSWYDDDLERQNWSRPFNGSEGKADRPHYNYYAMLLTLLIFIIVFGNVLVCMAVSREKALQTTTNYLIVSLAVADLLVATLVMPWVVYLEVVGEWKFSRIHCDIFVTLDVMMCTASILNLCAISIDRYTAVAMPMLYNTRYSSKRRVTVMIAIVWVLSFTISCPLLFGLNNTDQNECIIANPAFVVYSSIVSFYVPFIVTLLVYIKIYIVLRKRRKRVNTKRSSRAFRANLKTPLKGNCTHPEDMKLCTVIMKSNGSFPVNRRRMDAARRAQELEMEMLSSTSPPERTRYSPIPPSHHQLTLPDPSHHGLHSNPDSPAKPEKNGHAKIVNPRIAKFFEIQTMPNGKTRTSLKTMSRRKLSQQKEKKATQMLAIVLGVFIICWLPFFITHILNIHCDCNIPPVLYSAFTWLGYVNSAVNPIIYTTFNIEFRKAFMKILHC

Point of comparison: Nc1nc(-c2cccs2)c(CCN2CC=C(c3ccccc3)CC2)s1 [Example 5, 2-Amino-5-[2-(4-phenyl-1,2,3,6-tetrahydropyridyl)-ethyl]-4-thien-2-ylthiazole dihydrochloride], Ki 10 nM. Against it:
- Cc1nc(N)sc1CCCN1CC=C(c2ccccc2)CC1 [Example 11, 2-Amino-4-methyl-5-[3-(4-phenyl-1,2,3,6-tetrahydropyridyl)-propyl]-thiazoletartrate] — the same, 10 nM
- COc1ccc(-c2nc(N)sc2CCN2CC=C(c3ccccc3)CC2)cc1 [Example 4, 2-Amino-4-(4-methoxyphenyl)-5-[2-(4-phenyl-1,2,3,6-tetrahydropyridyl)-ethyl]-thiazole] — 1.6-fold higher, 16 nM
- Cc1nc(Nc2ccccc2)sc1CCCN1CC=C(c2ccccc2)CC1 [Example 3, 4-methyl-2-phenylamino-5-[3-(4-phenyl-1,2,3,6-tetrahydropyridyl)-propyl]-thiazole dihydrochloride] — 2.5-fold lower, 4 nM
- Nc1nc(-c2ccccc2)c(CCN2CC=C(c3ccccc3)CC2)s1 [Example 8, 2-Amino-4-phenyl-5-[2-(4-phenyl-1,2,3,6-tetrahydropyridyl)-ethyl]-thiazole tartrate] — the same, 10 nM

same assay, conditions: displacement of 1 nM 3H-ADTN, rat striatum membranes, 0.1 μM SCH 23390, 40 min at 25° C.; read-out: Ki

Point of comparison: CCCN(CCCCc1sc(N)nc1C)CCc1ccccc1 [Example 25, 2-Amino-4-methyl-5-[4-(N-propyl-N-phenethylamino)-butyl]-thiazole dihydrochloride], Ki 4 nM. Against it:
- Cc1nc(N)sc1CCCN(C)CCc1ccccc1 [Example 2, 2-Amino-4-methyl-5-[3-(N-methyl-N-phenethylamino)-propyl]-thiazole fumarate] — 5-fold higher, 20 nM
- Nc1nc(-c2ccccc2)c(CCCN2CCN(c3ccccn3)CC2)s1 [Example 14, 2-Amino-4-phenyl-5-[3-(4-pyrid-2-ylpiperazin-1-yl)-propyl]tartrate] — 3.8-fold higher, 15 nM
- 2-Methylamino-4-methyl-5-[3-(4-phenylpiperazin-1-yl)-propyl]-thiazole dihydrochloride [Example 1] — 1.5-fold higher, 6 nM
- Nc1nc(-c2ccccc2)c(CCCN2CCN(c3ccccc3)CC2)s1 [Example 9, 2-Amino-4-phenyl-5-[3-(4-phenylpiperazin-1-yl)-propyl]-thiazole trihydrochloride] — 3.5-fold higher, 14 nM
- Nc1nc(-c2ccccc2)c(CCCN2CCN(c3ccccc3Cl)CC2)s1 [Example 18, 2-Amino-5-[3-(4-(2-chlorophenyl)-piperazin-1-yl)-propyl]-4-phenylthiazole tartrate] — 6.2-fold higher, 25 nM
- Nc1nc(-c2ccccc2)c(CCCN2CCN(c3ncccn3)CC2)s1 [Example 13, 2-Amino-4-phenyl-5-[3-(4-pyrimid-2-ylpiperazin-1-yl)-propyl]-thiazole tartrate] — 2.5-fold higher, 10 nM
- CCCN(CCCc1sc(N)nc1-c1ccccc1)CCc1ccccc1 [Example 23, 2-Amino-4-phenyl-5-[3-(N-propyl-N-phenethylamino)-propyl]-thiazole dihydrochloride] — 5-fold higher, 20 nM
- Nc1nc(-c2ccccc2)c(CCN2CCN(c3ccccc3[N+](=O)[O-])CC2)s1 [Example 22, 2-Amino-5-[2-(4-(2-nitrophenyl)-piperazin-1-yl)-ethyl]-4-phenylthiazole tartrate] — 4-fold higher, 16 nM
- CCCN(CCCc1sc(N)nc1C)CCc1ccccc1 [Example 10, 2-Amino-4-methyl-5-[3-(N-phenethyl-N-propylamino)-propyl]-thiazole fumarate] — 2.5-fold higher, 10 nM
